Test results published in patent US12246026B2, “Ganaxolone for use in treatment of status epilepticus” (Marinus Pharmaceuticals, Inc., priority 2019, dated 2025).

What was measured:
Solubility of ganaxolone = format: physicochemical
Description: Ganaxolone is insoluble in water. […] Ganaxolone has a relatively long half-life—approximately 20 hours in human plasma following oral administration (Nohria, V. and Giller, E., Neurotherapeutics, (2007) 4(1): 102-105). Furthermore, ganaxolone has a short Tmax, which means that therapeutic blood levels are reached quickly.
Ganaxolone formulations suitable for parenteral administration in the methods of the present invention may comprise physiologically acceptable sterile aqueous or non-aqueous solutions, dispersions, suspensions or emulsions, and sterile powders for reconstitution into sterile injectable solutions or dispersions. Examples of suitable aqueous and non-aqueous carriers, diluents, solvents, or vehicles including water, ethanol, polyols (propylene glycol, polyethylene-glycol, glycerol, cremophor and the like), suitable mixtures thereof, vegetable oils (such as olive oil) and injectable organic esters such as ethyl oleate. Additionally, ganaxolone can be dissolved at concentrations of >1 mg/ml using water soluble beta cyclodextrins (e.g. beta-sulfobutyl-cyclodextrin and 2-hydroxypropylbetacyclodextrin). A particularly suitable cyclodextrin is a substituted-β-cyclodextrin is Captisol®. […]

[1] = Safety in the ganaxolone clinical development program; format: in vivo, human
Text: In the completed placebo-controlled Phase 1, 2, and 3 studies, 0.32% of subjects who received ganaxolone and 0.46% of subjects who received placebo developed elevated LFTs during the study (>3×ULN AST and/or ALT). A subject participating in the ganaxolone paediatric epilepsy study developed liver failure, which was not considered to be related to ganaxolone. The subject was diagnosed with short bowel syndrome, liver steatosis and IgG-cholangitis, which were considered to be the causal factors for the subject's liver failure. There have been no other cases of Hy's Law or liver failure in the ganaxolone development program. […] After cessation of the dosing, plasma ganaxolone levels are expected to drop rapidly, but it is possible that low sub-therapeutic levels persist for several days as ganaxolone is slowly released from tissues.
(§1) Ganaxolone has been administered to infants with severe forms of epilepsy as early as 4 months of age. In clinical trials involving administration of ganaxolone over several weeks, the study drug has been tapered off over a 1 to 2-week period.

[2] = Toxicology studies in animals on prenatal and neonatal development; format: in vivo
Text: as §1

[3] = Phase 1 IV ganaxolone pharmacokinetics in healthy subjects; format: in vivo, human
Description: A Phase I clinical trial evaluating IV ganaxolone formulation was performed. The clinical trial was designed to investigate the safety, pharmacokinetics, and pharmacodynamics of an intravenous bolus of ganaxolone and continuous intravenous infusion of ganaxolone in 30 healthy subjects. Subjects were administered either an intravenous bolus of ganaxolone in an amount of 10-20 mg for a period of 2 minutes to 1 hour, or an intravenous bolus of ganaxolone in an amount of 6 mg for a period of 5 minutes with a continuous intravenous infusion in an amount of 20 mg/hr for a period of 4 hours.
There was little or no delay between the appearance of drug in plasma and a change in the BIS score.

[4] = Emergency IND No. 131,642, GNX plasma concentration; format: in vivo; conditions: human, intravenous, eIND 131,642, Day 1 regimen delivering 900 mg
Description: Under eIND No. 131,642, IV GNX was administered to a subject with SRSE who was unable to maintain status cessation with ketamine and barbiturates. The Day 1 dosage regimen delivered 900 mg of GNX, equating to a 900 to 1200 ng/mL plasma concentration of GNX. As the subject could not be maintained in burst suppression, the clinical team was able to utilize EEG changes to gauge the response (FIG. 11). […] However, due to the dosing plan agreed upon with the FDA with a daily Captisol limit of 63 g/day, the initial 120 mg/hr dose on Day 1 could not be maintained for longer than 1 hour and then had to be decreased to the 30 mg/hr dose. The first seizures re-occurred within 15 to 20 minutes of the change in GNX dose from 120 mg/hr to 30 mg/hr.

RSE patients = experiment: Phase 2 open-label dose range study, efficacy in RSE patients; format: in vivo, human; conditions: for GNX plasma concentration whose acute maintenance was associated with improved seizure control on EEG: PK/PD relationship, FIGS. 13A-13D
Description: Eligible patients were treated with continuous adjunctive IV ganaxolone infusion. Initial dosing included a 3-minute bolus dose (25 or 30 mg) with a continuous infusion at rates ranging from 10 to 85 mg/hour for up to 96-hours, followed by an 18-hour study drug taper.
The study enrolled 17 patients divided among 3 dosing cohorts. The IV solution utilizes Captisol® as an excipient for solubilization of ganaxolone. In an agreement with the Food and Drug Administration (FDA), the Captisol exposure for patients participating in Study 1042-SE-2001 was not to exceed 50 g/day. Given the daily Captisol limit, 3 different doses of GNX IV solution were investigated; 500, 650, and 713 mg/day total GNX referred to as the low, medium, and high dose level cohorts, respectively.

[5] = cited from earlier work
[6] = Medium cohort, 650 mg/day, n = 4
[7] = Target cohort, 713 mg/day, n = 8

CC(=O)[C@H]1CC[C@H]2[C@@H]3CC[C@H]4C[C@](C)(O)CC[C@]4(C)[C@H]3CC[C@]12C [Ganaxolone, 3α-hydroxy-3β-methyl-5α-pregnan-20-one]
solubility (Solubility of ganaxolone; aqueous with cosolvent or surfactant or cyclodextrin, beta-sulfobutyl-cyclodextrin, 2-hydroxypropylbetacyclodextrin, read-out: dissolved concentration using water soluble beta cyclodextrins): > 1000 µg/mL
solubility in water (Solubility of ganaxolone; water): insoluble
withdrawal symptoms after cessation ([1]; clinical trials, tapered off over 1 to 2 weeks): no reports of withdrawal symptoms
subjects who developed elevated LFTs (>3×ULN AST and/or ALT) ([1]; completed placebo-controlled Phase 1, 2 and 3 studies): 0.32%
trends in ECG intervals, vital signs, physical or neurological examinations ([1]; development program overall): no clinically significant trends
excretion to breast milk ([1]; ganaxolone and its metabolites): excreted to breast milk
toxicities in prenatal and neonatal development studies [2]: have not demonstrated toxicities
ganaxolone levels in plasma ([3]; all 30 healthy subjects, IV bolus or bolus plus infusion): quantifiable
dose relation of plasma concentrations ([3]; healthy subjects, IV): generally proportional to the administered dose
concentration at 1 day [4]: 900 to 1200 ng/mL
reduction in EEG seizure burden (RSE patients; 15 evaluable patients, low, medium and high cohorts): rapid and dose-dependent sustained reduction in EEG seizure burden
No SE Relapse at anytime during the 4-wk follow up period (RSE patients; Low cohort, 500 mg/day, 1 of 2 (1 died)): 50%
No escalation to IV anesthetics within 24 hrs from infusion initiation(Primary Endpoint) (RSE patients; Low cohort, 500 mg/day, n = 5): 100%
No escalation to additional IV AEDs or IV anesthetics for status relapse at any time through 24 hrs after GNX discontinuation (RSE patients; Low cohort, 500 mg/day, n = 5): 60%
Status-free through 24 hrs from infusion initiation (RSE patients; Low cohort, 500 mg/day, n = 5): 100%
No SE Relapse at anytime during the 4-wk follow up period (RSE patients; Medium cohort, 650 mg/day, 2 of 3 (1 ET)): 67%
No escalation to IV anesthetics within 24 hrs from infusion initiation(Primary Endpoint) (RSE patients; [6]): 100%
No escalation to additional IV AEDs or IV anesthetics for status relapse at any time through 24 hrs after GNX discontinuation (RSE patients; [6]): 75%
Status-free through 24 hrs from infusion initiation (RSE patients; [6]): 100%
GNX plasma concentration whose acute maintenance was associated with improved seizure control on EEG (RSE patients): ≥ 500 ng/mL
GNX plasma concentration whose acute maintenance was associated with improved seizure control on EEG (RSE patients; listed as GNX): > 500 ng/mL
No SE Relapse at anytime during the 4-wk follow up period (RSE patients; Target cohort, 713 mg/day, 6 of 6 (1ET, 1 died)): 100%
No escalation to IV anesthetics within 24 hrs from infusion initiation(Primary Endpoint) (RSE patients; [7]): 100%
No escalation to additional IV AEDs or IV anesthetics for status relapse at any time through 24 hrs after GNX discontinuation (RSE patients; [7]): 100%
Status-free through 24 hrs from infusion initiation (RSE patients; [7]): 88%
patients not requiring additional IV AEDS or IV anesthetics for status relapse up to 4 weeks (RSE patients; all cohorts, 14 patients of 17): 82%
patients who achieved and maintained SE cessation within the first 24-hours (RSE patients; all cohorts, 16 patients of 17): 94%
patients not requiring escalation to an IV anesthetic drug for SE control within the first 24-hours (RSE patients; all cohorts, n=17): 100%
Median time to SE cessation from initiation of GNX treatment (RSE patients; all dose groups, n=15 evaluable patients): 5 min
patients with SE cessation achieved in <30 min (RSE patients; evaluable patients): 14 out of 15
half-life ([5]; human plasma following oral administration): approximately 20 hours
Tmax ([5]; human): short
